Results taken from US20260345620A1, “IMPROVEMENTS IN OR RELATING TO COMPOSITIONS FOR TREATMENT OF LESIONS” (SYDERMA LTD, priority 2023, published 2026).
Blank lines part the entries; values can stand above or below the molecule they belong to.

How the values were obtained:
basal cell carcinomas [1] = test: Topical treatment of basal cell carcinomas in person (Example 4); type: in vivo, human; conditions: one month after completing 1 month once daily treatment; 5% 5-FU with (2 lesions) or without (1 lesion) 0.5% theobromine
Experimental: In another example, a person with multiple basal cell carcinomas was treated with: 5% 5-fluorouracil (5-FU) cream alone (1 lesion, back, clinical diagnosis) or a combination of 5-FU cream and theobromine solution (2 lesions-biopsy confirmed basal cell carcinoma, right leg and basal cell carcinoma, left forearm, clinical diagnosis). The treatment was continued once daily for 1 month and 0.5% percent theobromine solution. In application, 50-100 μL (1-2 drops) of theobromine solution was applied in a thin water-based layer over the whole treated area evenly (up to 50 cm2 area in total). 5-FU was applied via finger application, as per best practice and manufacturer's instructions. One finger tip unit (0.5 g) was used to cover 1 lesion. 5FU was applied 30 min after theobromine. One month after completing treatment the patient was examined by a dermatologist. The lesions treated with 5FU and theobromine resolved and the lesion treated with 5FU persisted.

basal cell carcinomas [2] = conditions: topical; cited from earlier work
actinic keratoses [3] = test: Split-area topical treatment of actinic keratoses on scalp of person (Example 1); type: in vivo, human
Experimental: In one experiment a person with an actinic keratoses region on their scalp was treated with 5% 5-fluorouracil cream once daily for 30 days (as marked in FIG. 1, posterior region). Another area of actinic keratoses on their scalp (As marked on FIG. 1, anterior region) was treated with both 5% 5-fluorouracil cream once daily and 0.5% theobromine solution once daily for 30 days. The 5% 5-FU cream applied was a medically available cream from Mylan, commercially known as Efudix® cream. The theobromine solution was prepared in 25% ethanol and 50% glycerol, adjusted to pH 8 via 100 mM sodium hydrogen carbonate solution. Efudix® was stored as per manufacturer's instructions, at room temperature, and theobromine solution at room temperature in the dark. In application, 50-100 μL (1-2 drops) of theobromine solution was applied first in a thin water-based layer over the whole treated area evenly. 5-FU was applied 10-20 minutes later, via finger application, as per best practice and manufacturer's instructions. One fingertip unit (~0.5 g) was used for an equivalent of half the forehead area.
(§1) Redness and inflammation were assessed by the responsible physician.

thymidylate synthase = conditions: role: inhibitor; cited from earlier work
actinic keratoses [4] = test: Split-scalp topical treatment of actinic keratoses in person (Example 2); type: in vivo, human
Experimental: Quantification is as described for Patient #2 in Table 1;
In another experiment a person with an actinic keratoses on their scalp was treated with 5% 5-fluorouracil cream 4× per week for 4 weeks (15 lesions, as marked in FIG. 2, left side of scalp). Another area of actinic keratoses on their scalp (16 lesions, as marked on FIG. 2, right side of scalp) was treated with both 5% 5-fluorouracil cream 4× per week and 0.5% theobromine solution 4× per week for 4 weeks. The 5% 5-FU cream applied was a medically available cream from Mylan, commercially known as Efudix® cream. The theobromine solution was prepared in 25% ethanol and 50% glycerol, adjusted to pH 8 via 100 mM sodium hydrogen carbonate solution. Efudix® was stored as per manufacturer's instructions, at room temperature, and theobromine solution at room temperature in the dark. In application, 50-100 μL (1-2 drops) of theobromine solution was applied first in a thin water-based layer over the whole treated area evenly. 5-FU was applied 10-20 minutes later, via finger application, as per best practice and manufacturer's instructions. One fingertip unit (~0.5 g) was used for an equivalent of half the forehead area.
as §1

actinic keratoses [5] = conditions: topical; cited from earlier work
[6] = topical; percent of patients; cited from earlier work
AK lesion = test: Split-scalp treatment of actinic keratoses with 5FU plus methylxanthine versus 5FU alone (Example 3); type: in vivo, human; conditions: for AK lesion clearance / efficacy versus 5FU alone control: 0.5% w/v methylxanthine in combination with Efudix 5% 5FU
Experimental: P values below 0.05, denoting significance, are as marked.
Results are shown per individual patient.
All patients were treated solely on the scalp and were only treated on half of the scalp with the test compound and 5FU, while the other half was used as control, treated with 5FU alone. Separation between combination and 5FU only control was mostly done medially, with one patient having and anterior/posterior treatment setup. As in Example 2, the patients self-administered the test compound on the test region 10-20 minutes before applying the Efudix® cream containing 5% w/v 5FU. In application, 50-100 μL (1-2 drops) of the test compound solution was applied first in a thin water-based layer over the whole treated area evenly. 5-FU was applied 10-20 minutes later, via finger application, as per best practice and manufacturer's instructions. Patients applied the regimen at regular intervals, once daily. One fingertip unit (~0.5 g) was used for an equivalent of half the scalp area.

actinic keratoses [7] = test: Topical theobromine alone on actinic keratoses on scalp of person (Example 9, comparative); type: in vivo, human
Experimental: (§2) In another experiment a person with an area of actinic keratoses on their scalp was treated with 0.5% theobromine solution once daily for 4 weeks. The theobromine solution was prepared in 25% ethanol and 50% glycerol, adjusted to pH 8 via 100 mM sodium hydrogen carbonate solution. Theobromine solution was stored at room temperature in the dark. In application, 50-100 μL (1-2 drops) of theobromine solution was applied first in a thin water-based layer over the whole treated area evenly.
(§3) The patient reported no discomfort with treatment: pain and soreness were reported by the patient to be 0/10 in areas treated with theobromine treatment.

basal cell carcinoma [8] = test: Topical theobromine alone on basal cell carcinoma in person (Example 7, comparative); type: in vivo, human; conditions: 0.5% theobromine solution once daily for 2 months
Experimental: (§4) In another example a person with a clinical diagnosis of basal cell carcinoma was treated with 0.5% percent theobromine solution. In application, 50-100 μL (1-2 drops) of theobromine solution was applied in a thin water-based layer over the whole treated area evenly (up to 50 cm 2 area in total). Theobromine was applied once daily for 2 months. At the end of the treatment, they were examined by a dermatologist.

actinic keratoses [9] = test: Topical theobromine alone on actinic keratoses on nose of person (Example 10, comparative); type: in vivo, human
Experimental: as §2, with “nose” for “scalp”
as §3

[10] = cited from earlier work
PARP = conditions: role: inhibitor; physiologically and clinically achievable conditions; cited from earlier work
ATM = conditions: role: inhibitor; physiologically and clinically achievable conditions; cited from earlier work
ATR = conditions: role: inhibitor; physiologically and clinically achievable conditions; cited from earlier work
basal cell carcinoma [11] = test: Topical theobromine alone on basal cell carcinoma in person (Example 8, comparative); type: in vivo, human; conditions: 0.5% theobromine solution once daily for 1 month
Experimental: as §4, with “for 1” for “for 2”, “months. The patient was” for “months. At the end of the treatment, they were”, “a dermatologist before the treatment and one week after completion of the treatment.” for “a dermatologist.”

[12] = four weeks after completion of treatment
[13] = 0.5% theobromine solution once daily for 4 weeks

pain and soreness reported by the patient (actinic keratoses [3]; after 30 days of once daily treatment, 5% 5-FU cream with or without 0.5% theobromine solution): 9 /10 | redness, soreness and inflammation assessed by physician (actinic keratoses [3]; after 30 days of treatment): became inflamed | discomfort reported by the patient (actinic keratoses [3]; during 30 days of treatment): significant discomfort | pain reported by the patient (actinic keratoses [3]; [12]): no pain reported by the patient | redness, soreness and inflammation assessed by physician (actinic keratoses [4]; after 4 weeks of treatment): became inflamed | pain and soreness reported by the patient (actinic keratoses [4]; after 4 weeks, 4x per week, 5% 5-FU cream with or without 0.5% theobromine solution): 2 /10 | discomfort reported by the patient (actinic keratoses [4]; during 4 weeks of treatment): mild discomfort | pain reported by the patient (actinic keratoses [4]; [12]): no pain reported by the patient
Structure (SMILES): O=c1[nH]cc(F)c(=O)[nH]1 [5-FU, 5-fluorouracil]
basal cell carcinoma lesion outcome (basal cell carcinomas [1]): persisted | efficacy for basal cell carcinomas (basal cell carcinomas [2]): 60-70% | inflammation and scaliness of treated area (actinic keratoses [3]; a week following cessation of treatment): significant inflammation and scaly appearance | clearance of the actinic keratosis lesion (actinic keratoses [3]; [12]): incomplete clearance | residual inflammatory reaction (actinic keratoses [3]; [12]): no visible residual inflammatory reaction | reduction in size of actinic keratosis lesion (actinic keratoses [3]; four weeks after completion of treatment, ImageJ image analysis): over 30% | inhibition of thymidylate synthase (thymidylate synthase): inhibitor of thymidylate synthase | clearance of the actinic keratosis lesions (actinic keratoses [4]; [12]): incomplete clearance | residual inflammatory reaction (actinic keratoses [4]; [12]): no visible residual inflammatory reaction | actinic keratosis lesion count after treatment (actinic keratoses [4]; four weeks after completion, starting count 15 (5-FU alone), 16 (combination)): 14 lesions | efficacy for actinic keratoses (actinic keratoses [5]): 50-60% | patients with painful, severe inflammatory reaction [6]: 20-50%

Structure (SMILES): Cn1c(=O)c2c(ncn2C)n(C)c1=O [caffeine]
AK lesion clearance / efficacy versus 5FU alone control (AK lesion): decreased efficacy | trend in efficacy per patient (AK lesion; 0.5% w/v methylxanthine with 5FU versus 5FU alone baseline): neither caffeine not theophylline showed any positive trends

Structure (SMILES): CC(C)Cn1cnc2c(N)nc3ccccc3c21 [imiquimod]
efficacy for basal cell carcinomas (basal cell carcinomas [2]): 70-80% | efficacy for actinic keratoses (actinic keratoses [5]): 50-60% | patients with painful, severe inflammatory reaction [6]: 20-50%

pain and soreness reported by the patient (actinic keratoses [7]; [13]): 0 /10 | discomfort reported by the patient (actinic keratoses [7]; after 4 weeks of treatment): no discomfort | redness or inflammation (actinic keratoses [7]; after 4 weeks of treatment): no redness or inflammation detected | inflammation or pain (basal cell carcinoma [8]): No evidence of inflammation or pain | pain and soreness reported by the patient (actinic keratoses [9]; [13]): 0 /10 | discomfort reported by the patient (actinic keratoses [9]; after 4 weeks of treatment): no discomfort | redness or inflammation (actinic keratoses [9]; after 4 weeks of treatment): no redness or inflammation detected | inflammation or pain (basal cell carcinoma [11]): No evidence of inflammation or pain
Structure (SMILES): Cn1cnc2c1c(=O)[nH]c(=O)n2C [theobromine]
reduction in number of actinic keratoses (actinic keratoses [7]; [13]): No reduction in a number of actinic keratoses | basal cell carcinoma outcome (basal cell carcinoma [8]): basal cell carcinoma persisted | change in lesion appearance (basal cell carcinoma [8]): no change in the lesion appearance | reduction in number of actinic keratoses (actinic keratoses [9]; 1 week after completion of 4 weeks treatment): No reduction in a number of actinic keratoses | solubility [10]: limited solubility | AK lesion clearance / efficacy versus 5FU alone control (AK lesion): significantly improved AK lesion clearance | inhibitory activity against PARP (PARP): triple inhibitory activity (against ATM, ATR and PARP) | inhibitory activity against ATM (ATM): triple inhibitory activity (against ATM, ATR and PARP) | inhibitory activity against ATR (ATR): triple inhibitory activity (against ATM, ATR and PARP) | change in lesion size or appearance (basal cell carcinoma [11]): no change in the lesion size or appearance | basal cell carcinoma outcome (basal cell carcinoma [11]; one week after completion): basal cell carcinoma persisted
